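48-hour exposure; five concentrations; linearly interpolated endpoints. GI50: concentration for 50% inhibition of growth. TGI marks complete inhibition of growth.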
What was measured:
Test in all cases: DTP human tumour cell line panel, 48 h
ACHN renal = test system: ACHN renal
DU-145 prostate = test system: DU-145 prostate
MDA-MB-231 breast = test system: MDA-MB-231 breast
MDA-MB-435 = test system: MDA-MB-435
OVCAR-4 ovarian = test system: OVCAR-4 ovarian
OVCAR-5 ovarian = test system: OVCAR-5 ovarian
SK-MEL-2 melanoma = test system: SK-MEL-2 melanoma
SK-MEL-28 melanoma = test system: SK-MEL-28 melanoma
SK-OV-3 ovarian = test system: SK-OV-3 ovarian
T-47D breast = test system: T-47D breast
786-0 renal = test system: 786-0 renal
A498 renal = test system: A498 renal
A549 NSCLC = test system: A549 NSCLC
CAKI-1 renal = test system: CAKI-1 renal
CCRF-CEM leukemia = test system: CCRF-CEM leukemia
COLO 205 colon = test system: COLO 205 colon
EKVX NSCLC = test system: EKVX NSCLC
HCC-2998 colon = test system: HCC-2998 colon
HCT-116 colon = test system: HCT-116 colon
HCT-15 colon = test system: HCT-15 colon
HL-60(TB) leukemia = test system: HL-60(TB) leukemia
HOP-62 NSCLC = test system: HOP-62 NSCLC
HOP-92 NSCLC = test system: HOP-92 NSCLC
HT29 colon = test system: HT29 colon
IGROV1 ovarian = test system: IGROV1 ovarian
K-562 leukemia = test system: K-562 leukemia
KM12 colon = test system: KM12 colon
M14 melanoma = test system: M14 melanoma
MALME-3M melanoma = test system: MALME-3M melanoma
MCF7 breast = test system: MCF7 breast
MOLT-4 leukemia = test system: MOLT-4 leukemia
NCI-H23 lung = test system: NCI-H23 lung
NCI-H460 lung = test system: NCI-H460 lung
NCI/ADR-RES ovarian = test system: NCI/ADR-RES ovarian
OVCAR-3 ovarian = test system: OVCAR-3 ovarian
OVCAR-8 ovarian = test system: OVCAR-8 ovarian
PC-3 prostate = test system: PC-3 prostate
RPMI-8226 leukemia = test system: RPMI-8226 leukemia
RXF 393 renal = test system: RXF 393 renal
SF-268 CNS = test system: SF-268 CNS
SF-295 CNS = test system: SF-295 CNS
SF-539 CNS = test system: SF-539 CNS
SNB-19 CNS = test system: SNB-19 CNS
SNB-75 CNS = test system: SNB-75 CNS
SR leukemia = test system: SR leukemia
SW-620 colon = test system: SW-620 colon
TK-10 renal = test system: TK-10 renal
U251 CNS = test system: U251 CNS
UACC-257 melanoma = test system: UACC-257 melanoma
UACC-62 melanoma = test system: UACC-62 melanoma
UO-31 renal = test system: UO-31 renal

With `N=C(N)c1ccc(-c2ccc(-c3ccc(Cl)cc3)s2)nc1` the GI50 (ACHN renal) was 1.65 µM, the TGI (ACHN renal) was 3 µM and the GI50 (DU-145 prostate) was 1.7 µM. For the same compound, the TGI (DU-145 prostate) was 3.07 µM, the GI50 (MDA-MB-231 breast) was 1.35 µM and the TGI (MDA-MB-231 breast) was 2.74 µM. The GI50 (MDA-MB-435) was 1.65 µM, the TGI (MDA-MB-435) was 3.02 µM and the GI50 (OVCAR-4 ovarian) was 1.64 µM. The TGI (OVCAR-4 ovarian) was 3.06 µM, the GI50 (OVCAR-5 ovarian) was 1.56 µM and the TGI (OVCAR-5 ovarian) was 2.9 µM. The GI50 (SK-MEL-2 melanoma) was 2.21 µM, the TGI (SK-MEL-2 melanoma) was 4.89 µM and the GI50 (SK-MEL-28 melanoma) was 1.62 µM. For the same compound, the TGI (SK-MEL-28 melanoma) was 2.97 µM, the GI50 (SK-OV-3 ovarian) was 3.56 µM and the TGI (SK-OV-3 ovarian) was 18.1 µM. The GI50 (T-47D breast) was 1.82 µM and the TGI (T-47D breast) was 4.49 µM.
`CC(=O)c1ccc(N2CCN(C3=CC(=O)c4c(O)ccc(O)c4C3=O)CC2)cc1` gave a TGI (786-0 renal) greater than 100 µM, a TGI (A498 renal) greater than 100 µM and a TGI (A549 NSCLC) greater than 100 µM. The TGI (CAKI-1 renal) was greater than 100 µM, the TGI (CCRF-CEM leukemia) was greater than 100 µM and the TGI (COLO 205 colon) was greater than 100 µM. The TGI (DU-145 prostate) was greater than 100 µM, the TGI (EKVX NSCLC) was greater than 100 µM and the TGI (HCC-2998 colon) was greater than 100 µM. For the same compound, the TGI (HCT-116 colon) was greater than 100 µM, the TGI (HCT-15 colon) was 55.6 µM and the TGI (HL-60(TB) leukemia) was 38.6 µM. The TGI (HOP-62 NSCLC) was greater than 100 µM, the TGI (HOP-92 NSCLC) was 79.2 µM and the TGI (HT29 colon) was greater than 100 µM. For the same compound, the TGI (IGROV1 ovarian) was greater than 100 µM, the TGI (K-562 leukemia) was greater than 100 µM and the TGI (KM12 colon) was greater than 100 µM. It also gave a TGI (M14 melanoma) greater than 100 µM, a TGI (MALME-3M melanoma) greater than 100 µM and a TGI (MCF7 breast) greater than 100 µM. The TGI (MDA-MB-231 breast) was 94.8 µM, the TGI (MOLT-4 leukemia) was greater than 100 µM and the TGI (NCI-H23 lung) was greater than 100 µM. The TGI (NCI-H460 lung) was greater than 100 µM, the TGI (NCI/ADR-RES ovarian) was greater than 100 µM and the TGI (OVCAR-3 ovarian) was greater than 100 µM. It also gave a TGI (OVCAR-4 ovarian) greater than 100 µM, a TGI (OVCAR-5 ovarian) greater than 100 µM and a TGI (OVCAR-8 ovarian) greater than 100 µM. For the same compound, the TGI (PC-3 prostate) was greater than 100 µM, the TGI (RPMI-8226 leukemia) was greater than 100 µM and the TGI (RXF 393 renal) was greater than 100 µM. For the same compound, the TGI (SF-268 CNS) was greater than 100 µM, the TGI (SF-295 CNS) was greater than 100 µM and the TGI (SF-539 CNS) was greater than 100 µM. For the same compound, the TGI (SK-MEL-28 melanoma) was greater than 100 µM, the TGI (SNB-19 CNS) was greater than 100 µM and the TGI (SNB-75 CNS) was 61.7 µM. For the same compound, the TGI (SR leukemia) was greater than 100 µM, the TGI (SW-620 colon) was greater than 100 µM and the TGI (T-47D breast) was greater than 100 µM. For the same compound, the TGI (TK-10 renal) was greater than 100 µM, the TGI (U251 CNS) was 50.3 µM and the TGI (UACC-257 melanoma) was greater than 100 µM. It also gave a TGI (UACC-62 melanoma) greater than 100 µM and a TGI (UO-31 renal) of 35.5 µM.

— PubChem BioAssay (NCI)
